Assay results taken from patent US12168639B2 (priority 2013, dated 2024).

Columns and labels:
[1] = tested on: rats; settings: rat, in vivo
[2] = rat, in vivo
[3] = tested on: whole-cell brain preparations; type: cell-based
[4] = tested on: Isolated mitochondria from brain; type: cell-based, rat
[5] = tested on: rats; settings: rat, in vivo; remark: listed apart in the source
[6] = tested on: Isolated mitochondria from liver; type: cell-based, rat
[7] = tested on: rats fed a high-fat diet and sucrose supplemented (5%) drinking water; settings: rat, in vivo

SMILES: O=[N+]([O-])c1ccc(O)c([N+](=O)[O-])c1 [DNP, 2,4-dinitrophenol]
- lowest dose where systemic toxicities may be observed [1]: 25 mg/kg
- mortality acutely after IP injection [1]: rapid dose-dependent mortality
- rectal temperature after IP injection [1]: large, dose-dependent increase
- doses causing increase in rectal temperatures and mortality ([1]; ip): above 10 mg/kg
- peak DNP liver concentrations [2]: ~60 µM
- peak plasma DNP concentration [2]: ~120 µM
- peak plasma DNP concentrations [2]: ~380 µM
- time of peak plasma concentrations of DNP after injection [2]: 1 h
- uncoupling [3]: neither DNP nor DNPME was found to uncouple
- mitochondrial uncoupling (oxygen consumption) [4]: uncoupled both tissues
- ratio of effective to toxic dose [5]: 0.2
- toxic threshold of chronic treatment [5]: 1 mg/kg
- mitochondrial uncoupling (oxygen consumption) [6]: uncoupled both tissues
- lowest dose effective at lowering liver TAG [7]: 5 mg/kg
